Residues, ends and D or L forms follow the SMILES beside them. *: point of attachment. Tos = Cc1ccc(S(=O)(=O)*)cc1
Which melting point does the source give for `O=C(Nc1cccc2c1C(=O)c1c-2n[nH]c1C1CCN(C(=O)N2CCNCC2)CC1)NN1CCOCC1` here?
Its melting point is 195 to 197 °C.

With `O=C(O)CCCCCCCCCCCCCCCCCCCCC(=O)ON1C(=O)CCC1=O` as the compound, how does the melting point read?
The melting point was 122 to 124 °C.

Which melting point does the source give for `O=C(Nc1cccnc1Cl)N1CCc2ccccc2CC1` here?
Its melting point is 120 to 122 °C.

With `CCCCCCCCOc1ccc(C(C)(C)CC(C)(C)C)cc1S(=O)(=O)NCC(C)c1nn2nc(C)c(Cl)c2[nH]1` (stereo not drawn) as the compound, how does the melting point read?
Its melting point is 135 to 137 °C.

For `Cc1ccc(S(=O)(=O)N2CCC[C@H]2C(=O)N[C@@H](CCC(N)=O)C(=O)O)cc1` (Tos-Pro-Gln-OH), which melting point is on record?
Its melting point is 45 to 55 °C.

Which melting point does the source give for `CN(CC#CI)c1nc(CO)cs1` here?
The melting point was 118 to 119 °C.

For `CCN(CC)CCNc1ccc(CNS(C)(=O)=O)c2sc3ccc(Br)cc3c(=O)c12`, which melting point is on record?
The melting point was 134 to 139 °C.

For `O=C(N1CCOCC1)C(c1ccccc1)(c1ccccc1)c1ncc[nH]1`, which melting point is on record?
The melting point was 113 °C.

For `FC(F)(F)c1cc(N2CCN(Cc3n[nH]c4ccccc34)CC2)cc(C(F)(F)F)c1`, which melting point is on record?
Its melting point is 155 to 156 °C.

Which melting point does the source give for `O=C(/C=C/c1ccc(C(F)(F)F)cc1Br)Nc1ccc2ncsc2c1` here?
Its melting point is 214 to 215 °C.

For `CCCCOC(=O)c1cc2c(cn1)[nH]c1ccccc12`, which melting point is on record?
The melting point was 211 to 212 °C.

Which melting point does the source give for `CN1CCN(c2ccc(-c3[nH]nc4c3C(=O)c3c(NC(=O)NN(C)C)cccc3-4)cc2)CC1` here?
Its melting point is 192 °C.

Which melting point does the source give for `COC(=O)c1c(C)nc2c(c1N)c1ccccc1n2Cc1ccc(OC)cc1` here?
Its melting point is 142 to 145 °C.

For `COC(=O)NCC1CN(c2ccc(-n3cnc(Cn4cccn4)c3)c(F)c2)C(=O)O1` (stereo not drawn), which melting point is on record?
The melting point was 130 °C.

Which melting point does the source give for `Cc1sc2nc3cccc(C)c3c(=O)n2c1C` here?
Its melting point is 278 to 280 °C.

With `Cc1ccc(N2C(=O)C(O)=C(C(=O)c3ccc(C(C)C)cc3)C2c2ccc(C(C)C)cc2)nn1` (stereo not drawn) as the compound, how does the melting point read?
The melting point was 271 °C.

For `CN(C)CCCCCNc1nc2cc(Cl)c(Cl)cc2nc1-c1ccccn1`, which melting point is on record?
Its melting point is 100 to 102 °C.

For `CC(C)(C#N)C(O)(CCc1ccc(F)cc1)Cn1cncn1` (stereo not drawn), which melting point is on record?
Its melting point is 152 to 154 °C.

With `CC(C)c1ccc2c(c1)C(C(=O)O)c1ccccc1CO2` (stereo not drawn) as the compound, how does the melting point read?
Its melting point is 161 to 162 °C.

For `CCc1noc(C)c1-c1[nH]c2ccccc2c1CCCCN(C)C`, which melting point is on record?
The melting point was 156 to 158 °C.

With `CCCCCCCCCCCCOCC1CN(c2cc3c(cc2F)c(=O)c(C(=O)O)cn3CC)CCN1` (stereo not drawn) as the compound, how does the melting point read?
Its melting point is 125 to 127 °C.

With `O=C1CCC(c2ccc(-c3ccc(Cl)cc3)cc2)=NO1` as the compound, how does the melting point read?
Its melting point is 190 to 192 °C.

With `COc1ccc(C(=O)Nc2ccccc2)cc1NS(=O)(=O)c1ccc(C)cc1` as the compound, how does the melting point read?
The melting point was 200 to 202 °C.

For `CC1=NCCSC1=NOC(=O)N(C)C`, which melting point is on record?
Its melting point is 64 to 65 °C.

With `CNC(=O)N(O)C(C)c1ccc(F)cc1` (stereo not drawn) as the compound, how does the melting point read?
Its melting point is 130 to 133 °C.

Which melting point does the source give for `O=C(O)c1ccc(-c2nc(-c3c(F)c(F)c(F)c(F)c3F)cs2)cc1` here?
The melting point was 273 to 274 °C.

With `C=CS(=O)(=O)N1CCC(N2N=C(c3ccc(OC)c(OC)c3)[C@H]3CC=CC[C@H]3C2=O)CC1` as the compound, how does the melting point read?
Its melting point is 89 to 90 °C.

Which melting point does the source give for `COC(=O)c1ccc(C(O)c2cc3cc(C(F)(F)F)ccc3n2S(=O)(=O)c2cccc(C(C)(C)C)c2)cc1` (racemic) here?
Its melting point is 60 °C.

For `O=C(O)c1ccc(C#Cc2ccccc2)cc1OCc1ccccc1`, which melting point is on record?
Its melting point is 125 to 127 °C.

With `NC(=O)/C=C1\CCc2c(F)cc(Cl)cc21` as the compound, how does the melting point read?
Its melting point is 171 to 173 °C.

For `CC(C)S(=O)(=O)c1cc(C#N)c(N)c(OCCCS(C)(=O)=O)c1`, which melting point is on record?
The melting point was 142 to 143 °C.

For `O=C(CCC(O)c1ccccc1)NCc1ccccc1` (stereo not drawn), which melting point is on record?
The melting point was 92 to 94 °C.

Which melting point does the source give for `CC[C@H](C)C(OCc1ccccc1)[C@H]1[C@H]([N+](=O)[O-])[C@H](c2ccccc2)N[C@@H]1C(=O)NCCC(=O)O` (stereo partly drawn) here?
The melting point was 140 to 141 °C.

With `CC(C)(C)OC(=O)N1CCC(c2nc3cc(-c4ccc(C#N)cc4)ccc3o2)CC1` as the compound, how does the melting point read?
Its melting point is 137 to 141 °C.

Which melting point does the source give for `CCN(C)c1nc2sc3c(NCCN4CCOCC4)ncnc3c2c2c1CCC(C)(C)C2` here?
Its melting point is 144 °C.

Which melting point does the source give for `CCC[C@H]1CN(c2c(F)cc3c(=O)c(C(=O)O)cn([C@@H]4C[C@@H]4F)c3c2OC)C[C@H]1N` here?
Its melting point is 79 to 83 °C.

With `S=C1Nc2cccnc2Nc2cscc21` as the compound, how does the melting point read?
Its melting point is 255 to 260 °C.

With `CSc1nc(N)c(N)c(=O)n1C` as the compound, how does the melting point read?
Its melting point is 211 to 212 °C.

For `N#CC1CN1C(=O)NC(=O)CCl` (stereo not drawn), which melting point is on record?
Its melting point is 152 to 155 °C.

With `CCCCCNC(=N)NC(N)=S` as the compound, how does the melting point read?
The melting point was 98 to 100 °C.

With `CCC1(C(=O)C=Cc2ccc(C(=O)O)cc2)CC1` as the compound, how does the melting point read?
Its melting point is 184 °C.

Which melting point does the source give for `CCN(CC)Cc1cc(Nc2ccnc3cc(Cl)ccc23)c2c(c1O)CCCC2` here?
Its melting point is 215 to 217 °C.

With `O=C(Cc1cccs1)NC1CN(C(C(=O)O)c2ccc(OC(=O)c3ccccc3)cc2)C1=O` (stereo not drawn) as the compound, how does the melting point read?
Its melting point is 129 to 131 °C.

For `COc1ccc(-c2nc(C)cc(O)n2)cc1`, which melting point is on record?
The melting point was 198 to 199 °C.

With `CCC(C)NC(=O)c1ncc(C)cc1C(=O)OC` (stereo not drawn) as the compound, how does the melting point read?
Its melting point is 58 to 60 °C.

For `COC(=O)c1ccc(CNc2ccc3c(c2)C(C)(C)CCC3(C)C)cc1`, which melting point is on record?
The melting point was 104 to 107 °C.

For `CSc1ccc(NC(=O)N(C)O)cc1`, which melting point is on record?
The melting point was 146 to 148 °C.

With `Cc1cccc(-c2ccccc2NC(=N)N(C)C)c1` as the compound, how does the melting point read?
Its melting point is 116 °C.

With `O=C(O)Cc1ccc(-n2cc(F)cn2)c(Cl)c1` as the compound, how does the melting point read?
The melting point was 110 to 112 °C.

Which melting point does the source give for `O=c1c2c(Cc3cccc(C(F)(F)F)c3)n[nH]c2c2cccnc2n1-c1cccc(OC(F)(F)F)c1` here?
Its melting point is 206 to 209 °C.

For `O=C(O)C1CN(Cc2ccccc2)CCN1Cc1ccccc1` (stereo not drawn), which melting point is on record?
The melting point was 184 to 185 °C.

Which melting point does the source give for `COc1ccc(N2CCc3c2c2cccc(OC)c2[nH]c3=O)c(C)c1` here?
Its melting point is 188 to 191 °C.

Which melting point does the source give for `O=C1NC2(CCCC2)CCCC1(Cl)Cl` here?
The melting point was 114 to 120 °C.

With `CC(=O)Nc1ccc(S(=O)(=O)F)cc1` as the compound, how does the melting point read?
The melting point was 169 to 171 °C.

With `Nc1ncccc1-c1nc2ccc(-c3cccnc3)nc2n1-c1ccc(CNC(=O)c2ccccc2)cc1` as the compound, how does the melting point read?
The melting point was 253 to 256 °C.

For `COc1ccc(C(=O)CN2CCN(c3cccccc3=O)CC2)cc1OC`, which melting point is on record?
The melting point was 132 to 135 °C.

With `N#Cc1cc(C(F)(F)F)[nH]c1-c1ccc(Cl)c(Cl)c1` as the compound, how does the melting point read?
The melting point was 230 to 232 °C.

For `CCC(CC)(c1ccc(F)cc1)c1c[nH]c2c(NS(C)(=O)=O)cccc12`, which melting point is on record?
Its melting point is 137 to 138 °C.

Which melting point does the source give for `CNC(=O)[C@@H]1C=CCN1S(=O)(=O)c1ccc(Cl)c(COc2cccc3c(-n4ccnc4)cc(C)nc23)c1Cl` here?
Its melting point is 132 °C.

With `O=C(O)CN(Cn1nnc2ccccc21)Cn1nnc2ccccc21` as the compound, how does the melting point read?
Its melting point is 163 to 166 °C.

Which melting point does the source give for `CCn1cc(C(=O)O)c(=O)c2cc(F)c(C(C)=O)c(F)c21` here?
Its melting point is 250 to 251 °C.

With `Oc1ccc([C@H]2CC[C@H](NCCNc3ccccc3)CC2)cc1` as the compound, how does the melting point read?
Its melting point is 180 to 184 °C.

With `Cc1ccc(Nc2nc(-n3nc(C)cc3C)nc3ccccc23)cc1` as the compound, how does the melting point read?
The melting point was 210 to 216 °C.

With `CCCCCCCCCCCCCCCCCNC(=O)O[C@@H]1CCO[C@H]1COCc1ccccc1` (relative stereo) as the compound, how does the melting point read?
The melting point was 54 to 56 °C.

Which melting point does the source give for `CCCn1nc2c(N)nc3ncccc3c2c1CC` here?
Its melting point is 303 to 305 °C.

With `COc1cc2nc(N3CCN(C(=O)CC(C)O)CC3)nc(N)c2cc1OC` (stereo not drawn) as the compound, how does the melting point read?
The melting point was 220 to 222 °C.

For `O=C(OCc1ccccc1)C(=C1NCCCS1)[N+](=O)[O-]`, which melting point is on record?
The melting point was 78 to 79 °C.

For `C=CCC(Cc1ccc([N+](=O)[O-])cc1)NC(=O)OCc1ccccc1` (stereo not drawn), which melting point is on record?
Its melting point is 94 to 95 °C.

Which melting point does the source give for `COc1ccc(-c2nc(C)cc(Cl)n2)cc1` here?
The melting point was 80 to 81 °C.

For `O=C(NC1CCN(CCC2CCOc3ccccc32)CC1)c1cccnc1` (stereo not drawn), which melting point is on record?
The melting point was 126 to 128 °C.

Which melting point does the source give for `CC(C)Cn1cccc1C(N)=S` here?
The melting point was 126 to 128 °C.

With `CC(=O)c1ccc(S)cc1OCC(=O)O` as the compound, how does the melting point read?
The melting point was 149 to 150 °C.

Which melting point does the source give for `Cc1cc(C)c2c(c1C)OCC2c1ccc(Br)cc1` (stereo not drawn) here?
Its melting point is 72 to 73 °C.

From a melting point compilation (Tetko et al.; mined from patent text by program, amines drawn as free bases though some values may be those of a salt)
